Patent US20170152239A1, “BENZAMIDE AND HETEROBENZAMIDE COMPOUNDS” (PFIZER INC., priority 2012, published 2017)
Where two headings read alike, the source gives them in different places.

Columns and labels:
[1] = target: WT EZH2 (EZH2 4 protein complex: EZH2, EED, SUZ12, RbAp48) (Homo sapiens, UniProt O75530+Q09028+Q15022+Q15910); assay: WT EZH2 nucleosome assay; type: biochemical
How it was run: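 Radiometric methyltransferase assay: 5 nM EZH2 four-protein complex, 1.5 μM 3H-SAM, 25 μg/mL HeLa oligonucleosomes, 50 nM recombinant H1 in 100 mM Tris pH 8.5, 4 mM DTT, 0.01% Tween-20. 60 min reaction, TCA quench, filter capture, scintillation counting; IC50 from 11-point 4-parameter fit; % effect at 20 μM.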

[2] = target: EZH2PRC2 mutant Y641N (Homo sapiens, UniProt Q15910, Y641N); assay: EZH2PRC2 mutant Y641N nucleosome assay; type: biochemical; conditions: read-out: EZH2PCR2 Mutant Y641N IC50
Chain of EZH2PRC2 mutant Y641N (Q15910 whole entry Y641N): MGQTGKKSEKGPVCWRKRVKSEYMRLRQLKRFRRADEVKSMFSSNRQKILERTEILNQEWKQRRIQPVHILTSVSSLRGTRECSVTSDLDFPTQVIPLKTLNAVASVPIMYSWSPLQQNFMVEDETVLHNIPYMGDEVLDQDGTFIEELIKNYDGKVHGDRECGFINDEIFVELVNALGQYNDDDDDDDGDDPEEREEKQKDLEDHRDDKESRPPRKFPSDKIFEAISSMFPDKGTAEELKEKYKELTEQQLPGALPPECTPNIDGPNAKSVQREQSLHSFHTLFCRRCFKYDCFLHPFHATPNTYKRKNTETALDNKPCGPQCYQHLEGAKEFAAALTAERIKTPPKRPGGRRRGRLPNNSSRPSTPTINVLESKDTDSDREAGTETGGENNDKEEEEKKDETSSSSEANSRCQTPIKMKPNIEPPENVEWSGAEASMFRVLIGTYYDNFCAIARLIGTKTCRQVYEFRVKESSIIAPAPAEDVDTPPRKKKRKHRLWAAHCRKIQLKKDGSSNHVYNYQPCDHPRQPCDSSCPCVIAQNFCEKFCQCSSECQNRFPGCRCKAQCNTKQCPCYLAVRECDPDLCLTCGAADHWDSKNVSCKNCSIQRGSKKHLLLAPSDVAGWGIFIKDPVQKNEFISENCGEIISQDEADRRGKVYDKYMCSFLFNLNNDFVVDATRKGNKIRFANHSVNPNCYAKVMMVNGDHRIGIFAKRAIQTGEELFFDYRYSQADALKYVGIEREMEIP
Chain of EZH2PRC2 mutant Y641N (O75530 whole entry partner): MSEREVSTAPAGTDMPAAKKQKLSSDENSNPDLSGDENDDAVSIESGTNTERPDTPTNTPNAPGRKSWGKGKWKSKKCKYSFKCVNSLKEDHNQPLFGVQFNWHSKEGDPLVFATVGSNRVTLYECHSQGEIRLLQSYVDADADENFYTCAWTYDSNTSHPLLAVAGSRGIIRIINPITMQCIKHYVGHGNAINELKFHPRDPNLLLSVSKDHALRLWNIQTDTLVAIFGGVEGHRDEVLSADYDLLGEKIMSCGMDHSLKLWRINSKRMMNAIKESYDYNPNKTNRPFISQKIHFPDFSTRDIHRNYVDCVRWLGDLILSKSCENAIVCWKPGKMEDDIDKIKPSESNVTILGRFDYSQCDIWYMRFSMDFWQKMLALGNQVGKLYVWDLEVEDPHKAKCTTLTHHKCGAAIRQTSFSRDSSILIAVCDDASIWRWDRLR
Chain of EZH2PRC2 mutant Y641N (Q15022 whole entry partner): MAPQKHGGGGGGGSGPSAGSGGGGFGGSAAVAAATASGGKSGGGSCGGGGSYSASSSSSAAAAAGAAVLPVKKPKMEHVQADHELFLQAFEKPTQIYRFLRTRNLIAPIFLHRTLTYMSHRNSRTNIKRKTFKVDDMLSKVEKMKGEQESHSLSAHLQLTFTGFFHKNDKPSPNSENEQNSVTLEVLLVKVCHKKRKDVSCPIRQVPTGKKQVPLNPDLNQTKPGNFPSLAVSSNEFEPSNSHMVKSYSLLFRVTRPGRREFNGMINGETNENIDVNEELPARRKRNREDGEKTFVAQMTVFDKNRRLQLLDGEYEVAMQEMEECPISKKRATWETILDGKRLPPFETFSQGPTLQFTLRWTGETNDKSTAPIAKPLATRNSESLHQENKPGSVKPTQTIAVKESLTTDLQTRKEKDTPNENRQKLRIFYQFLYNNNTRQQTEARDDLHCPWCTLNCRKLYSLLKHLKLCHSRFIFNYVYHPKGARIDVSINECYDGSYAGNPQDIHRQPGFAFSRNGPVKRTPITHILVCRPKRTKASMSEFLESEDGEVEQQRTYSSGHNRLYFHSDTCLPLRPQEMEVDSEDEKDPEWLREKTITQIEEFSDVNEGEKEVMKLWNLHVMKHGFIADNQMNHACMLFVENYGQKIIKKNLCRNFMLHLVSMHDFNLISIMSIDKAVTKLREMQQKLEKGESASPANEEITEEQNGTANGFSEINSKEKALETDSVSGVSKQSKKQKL
Chain of EZH2PRC2 mutant Y641N (Q09028 whole entry partner): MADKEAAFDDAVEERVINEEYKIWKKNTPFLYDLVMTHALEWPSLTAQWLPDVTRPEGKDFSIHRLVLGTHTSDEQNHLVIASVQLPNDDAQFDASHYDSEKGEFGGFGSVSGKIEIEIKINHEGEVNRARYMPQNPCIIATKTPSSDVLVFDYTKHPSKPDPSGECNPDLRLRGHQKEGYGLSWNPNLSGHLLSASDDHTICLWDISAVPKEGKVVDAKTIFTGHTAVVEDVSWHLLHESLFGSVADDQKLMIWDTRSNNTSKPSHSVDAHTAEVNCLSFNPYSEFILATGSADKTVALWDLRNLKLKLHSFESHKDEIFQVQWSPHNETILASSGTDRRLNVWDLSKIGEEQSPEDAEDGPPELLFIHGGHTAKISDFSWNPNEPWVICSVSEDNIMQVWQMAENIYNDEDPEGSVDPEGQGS
Procedure: Nucleosome Assay Protocol:
A. Compound preparation • 1. Prepare 10 mM stock solutions in 100% DMSO from solid material • 2. Serial dilute 10 mM compound stocks either 2 or 3-fold in 100% DMSO to generate compounds for 11 point dose response
B. Reagent preparation • 1. Prepare 1× assay buffer containing 100 mM Tris pH 8.5, 4 mM DTT and 0.01% Tween-20 • 2. Dilute purified HeLA oligonucleosomes and recombinant histone H1 (New England Biolabs) in assay buffer to 1.67×. • 3. Dilute EZH2 4 protein complex (EZH2, EED, SUZ12, RbAp48) to 3.5× in assay buffer • 4. Prepare 10×^3H SAM solution in assay buffer using 0.94 μCi/well of radioactive SAM (Perkin Elmer) and sufficient non-labeled SAM (Sigma) for 1.5 μM final concentration. • 5. Dilute TCA to 20% in DI water
C. Enzyme reaction • 1. Final reaction conditions are 5 nM EZH2 4-protein complex, 1.5 μM SAM, 25 μg/mL oligonucleosomes, 50 nM rH1 in a 50 μl reaction volume. • 2. Add 1 μl of diluted compound to the assay plate (96-well V-bottom polypropylene plates) or 1 μl of DMSO for control wells. • 3. Add 30 μl of nucleosomes to the assay plate • 4. Add 14 μl of EZH2 4 protein complex to the assay plate • 5. Add 5 μl of ^3H SAM to start the reaction. • 6. Stop the reaction after 60 minutes with the addition of 100 μl of 20% TCA • 7. Transfer 150 μl of quenched reaction into a prepared filterplate (Millipore #MSIPN4B10) • 8. Apply vacuum to the filterplate to filter the reaction mix through the membrane. • 9. Wash the filterplate with 8×200 μl of PBS, blot dry and dry in an oven for 30 minutes • 10. Add 50 μl of microscint-20 scintillation fluid (Perkin Elmer) to each well, wait 30 minutes and count on a liquid scintillation counter.
D. Data analysis • 1. IC50 values were determined by fitting the data to a 4-parameter IC50 equation using proprietary curve fitting software.
Wild type (WT) EZH2% Effect at 20 μM and IC50 values (μM) generated in WT EZH2 or EZH2PRC2 mutant Y641N nucleosome assays are provided in Table 3 below. A blank entry in the table indicates the data was not generated in that assay.

[3] = nucleosome assay, 5 nM EZH2 4-protein complex, 1.5 μM SAM, read-out: WT EZH2 IC50

Chain of WT EZH2 (EZH2 4 protein complex: EZH2, EED, SUZ12, RbAp48) (Q15910 whole entry): as the sequence (Q15910 whole entry Y641N) above, with N641Y counted along it
Chain of WT EZH2 (EZH2 4 protein complex: EZH2, EED, SUZ12, RbAp48) (O75530 whole entry partner): as the sequence (O75530 whole entry partner) above
Chain of WT EZH2 (EZH2 4 protein complex: EZH2, EED, SUZ12, RbAp48) (Q15022 whole entry partner): as the sequence (Q15022 whole entry partner) above
Chain of WT EZH2 (EZH2 4 protein complex: EZH2, EED, SUZ12, RbAp48) (Q09028 whole entry partner): as the sequence (Q09028 whole entry partner) above

SMILES | IC50 [1, 3] | IC50 [2] | IC50 [1]
CC(=O)N1C2CCC1c1cc(-c3cc(C(=O)NCc4c(C)cc(C)[nH]c4=O)c(C)c(-c4ccnn4C)c3)ccc12 (centres unmarked) [Example 6, 5-[9-acetyl-1,2,3,4-tetrahydro-1,4-epiminonaphthalene-6-yl]-N-[(4,6-dimethyl-2-oxo-1,2-dihydropyridin-3-yl)methyl]-2-methyl-3-(1-methyl-1H-pyrazol-5-yl)benzamide] | 22 nM | 820 nM | 
Cc1cc(C)c(CNC(=O)c2cc(-c3cnc(N(C)C)nc3)cc(-c3ccnn3C)c2C)c(=O)[nH]1 [Example 13, 5-[2-(dimethylamino)pyrimidin-5-yl]-N-[(4,6-dimethyl-2-oxo-1,2-dihydropyridin-3-yl)methyl]-2-methyl-3-(1-methyl-1H-pyrazol-5-yl)benzamide] | 38 nM | 620 nM | 
CNc1ncc(-c2cc(C(=O)NCc3c(C)cc(C)[nH]c3=O)c(C)c(-c3ccnn3C)c2)cn1 [Example 14, N-[(4,6-dimethyl-2-oxo-1,2-dihydropyridin-3-yl)methyl]-2-methyl-5-[2-(methylamino)pyrimidin-5-yl]-3-(1-methyl-1H-pyrazol-5-yl)benzamide] | 27 nM | 640 nM | 
CNc1ncc(-c2cc(C(=O)NCc3c(C)cc(C)[nH]c3=O)c(C)c(-c3c(C)cnn3C)c2)cn1 [Example 15, N-[(4,6-dimethyl-2-oxo-1,2-dihydropyridin-3-yl)methyl]-3-(1,4-dimethyl-1H-pyrazol-5-yl)-2-methyl-5-[2-(methylamino)pyrimidin-5-yl]benzamide] |  | 300 nM | 35 nM
Cc1cc(C)c(CNC(=O)c2cc(-c3cnc(N)nc3)cc(-c3ccnn3C)c2C)c(=O)[nH]1 [Example 16, 5-(2-aminopyrimidin-5-yl)-N-[(4,6-dimethyl-2-oxo-1,2-dihydropyridin-3-yl)methyl]-2-methyl-3-(1-methyl-1H-pyrazol-5-yl)benzamide] | 84 nM | 1330 nM | 
Cc1cc(C)c(CNC(=O)c2cc(-c3cnc(N4C[C@@H]5C[C@H]4CO5)nc3)cc(-c3c(C)cnn3C)c2C)c(=O)[nH]1 [Example 22, N-[(4,6-dimethyl-2-oxo-1,2-dihydropyridin-3-yl)methyl]-3-(1,4-dimethyl-1H-pyrazol-5-yl)-2-methyl-5-{2-[(1S,4S)-2-oxa-5-azabicyclo[2.2.1]hept-5-yl]pyrimidin-5-yl}benzamide] | 27 nM | 750 nM | 
Cc1cc(C)c(CNC(=O)c2cc(-c3cnc(N4CC(F)C4)nc3)cc(-c3c(C)cnn3C)c2C)c(=O)[nH]1 [Example 24, N-[(4,6-dimethyl-2-oxo-1,2-dihydropyridin-3-yl)methyl]-3-(1,4-dimethyl-1H-pyrazol-5-yl)-5-[2-(3-fluoroazetidin-1-yl)pyrimidin-5-yl]-2-methylbenzamide] | 22 nM | 550 nM | 
CCCc1cc(C)[nH]c(=O)c1CNC(=O)c1cc(-c2cnn(C)c2)cc(OC(C)C)c1Cl [Example 27, 2-chloro-3-isopropoxy-N-[(6-methyl-2-oxo-4-propyl-1,2-dihydropyridin-3-yl)methyl]-5-(1-methyl-1H-pyrazol-4-yl)benzamide] | 290 nM | 5150 nM | 
Cc1cc(C)c(CNC(=O)c2cc(-c3ccc4c(c3)CS(=O)(=O)C4)cc(-c3ccnn3C)c2C)c(=O)[nH]1 [Example 35, N-[(4,6-dimethyl-2-oxo-1,2-dihydropyridin-3-yl)methyl]-5-(2,2-dioxido-1,3-dihydro-2-benzothien-5-yl)-2-methyl-3-(1-methyl-1H-pyrazol-5-yl)benzamide] | 42 nM | 350 nM | 
COCc1cc(C)[nH]c(=O)c1CNC(=O)c1cc(Cl)cc(-c2ccnn2C)c1C [Example 50, 5-chloro-N-{[4-(methoxymeth-yl)-6-methyl-2-oxo-1,2-dihydropyridin-3-yl]methyl}-2-methyl-3-(1-methyl-1H-pyrazol-5-yl)benzamide] | 2050 nM | 26700 nM | 
CCn1ncc(C)c1-c1cccc(C(=O)NCc2c(C)c(Br)c(C)[nH]c2=O)c1C [Example 147, N-[(5-bromo-4,6-dimethyl-2-oxo-1,2-dihydropyridin-3-yl)methyl]-3-(1-ethyl-4-methyl-1H-pyrazol-5-yl)-2-methylbenzamide] | 178000 nM | > 200000 nM | 

Now from value to compound:

IC50 [1, 3] | IC50 [2] | IC50 [1] | SMILES
340 nM | 5530 nM |  | Cc1cc(C)c(CNC(=O)c2cccc(-c3ccnn3C)c2C)c(=O)[nH]1 [Example 2, N-[(4,6-dimethyl-2-oxo-1,2-dihydropyridin-3-yl)methyl]-2-methyl-3-(1-methyl-1H-pyrazol-5-yl)benzamide]
140 nM | 1310 nM |  | Cc1cc(C)c(CNC(=O)c2ncnc(N3CCN(c4ncccn4)C[C@@H]3C)c2C)c(=O)[nH]1 [Example 31, (S)—N-((4,6-dimethyl-2-oxo-1,2-dihydropyridin-3-yl)methyl)-5-methyl-6-(2-methyl-4-(pyrimidin-2-yl)piperazin-1-yl)pyrimidine-4-carboxamide]
2080 nM | 13000 nM |  | Cc1cc(C)c(CNC(=O)c2nc(Cl)nc(N3CCN(C)C[C@@H]3C)c2C)c(=O)[nH]1 [Example 36, 2-chloro-N-[(4,6-dimethyl-2-oxo-1,2-dihydropyridin-3-yl)methyl]-6-[(2S)-2,4-dimethylpiperazin-1-yl]-5-methylpyrimidine-4-carboxamide]
1190 nM | 6250 nM |  | Cc1cc(C)c(CNC(=O)c2nc(Cl)nc(N3CCOC[C@@H]3C)c2C)c(=O)[nH]1 [Example 37, 2-chloro-N-[(4,6-dimethyl-2-oxo-1,2-dihydropyridin-3-yl)methyl]-5-methyl-6-[(3S)-3-methyl-morpholin-4-yl]pyrimidine-4-carboxamide]
1100 nM | 7810 nM |  | Cc1cc(C)c(CNC(=O)c2nc(Cl)nc(N3CCC[C@@H]3C)c2C)c(=O)[nH]1 [Example 41, 2-chloro-N-[(4,6-dimethyl-2-oxo-1,2-dihydropyridin-3-yl)methyl]-5-methyl-6-[(2S)-2-methylpyrrolidin-1-yl]pyrimidine-4-carboxamide]
1810 nM | 19800 nM |  | CCOc1cccc(C(=O)NCc2c(C)cc(C)[nH]c2=O)c1C [Example 48, N-[(4,6-dimethyl-2-oxo-1,2-dihydropyridin-3-yl)methyl]-3-ethoxy-2-methyl-benzamide]
3980 nM | 50400 nM |  | COc1cccc(C(=O)NCc2c(C)cc(C)[nH]c2=O)c1C [Example 60, N-[(4,6-dimethyl-2-oxo-1,2-dihydropyridin-3-yl)methyl]-3-methoxy-2-methylbenz-amide]
4930 nM | 23500 nM |  | Cc1cc(C)c(CNC(=O)c2ncnc(N3CCN(C)C[C@@H]3C)c2C)c(=O)[nH]1 [Example 67, N-[(4,6-dimethyl-2-oxo-1,2-dihydropyridin-3-yl)methyl]-6-[(2S)-2,4-dimethylpipera-zin-1-yl]-5-methylpyrimi-dine-4-carboxamide]
9820 nM | 34800 nM |  | Cc1cc(C)c(CNC(=O)c2nc(N3CCCC3)nc(N3CCC[C@@H]3C)c2C)c(=O)[nH]1 [Example 88, N-[(4,6-dimethyl-2-oxo-1,2-dihydropyridin-3-yl)methyl]-5-methyl-6-[(2S)-2-methylpyrroli-din-1-yl]-2-pyrrolidin-1-ylpyrimidine-4-carboxamide]
11000 nM | 82400 nM |  | Cc1cc(C)c(CNC(=O)c2ncnc(N3[C@@H](C)COC[C@@H]3C)c2C)c(=O)[nH]1 [Example 89, 6-[(3S,5S)-3,5-dimethylmorph-olin-4-yl]-N-[(4,6-dimethyl-2-oxo-1,2-dihydropyridin-3-yl)methyl]-5-methylpyrimi-dine-4-carboxamide]
19800 nM | 86000 nM |  | Cc1cc(C)c(CNC(=O)c2ccnc(N3CCC[C@H]3C)c2Cl)c(=O)[nH]1 [Example 106, 3-chloro-N-[(4,6-dimethyl-2-oxo-1,2-dihydropyridin-3-yl)methyl]-2-[(2R)-2-methylpyrrolidin-1-yl]isonicotin-amide]
